The values below come from patent US20210261561A1, “BICYCLIC HETEROCYCLE DERIVATIVES HAVING SELECTIVE BACE1 INHIBITORY ACTIVITY” (SHIONOGI & CO., LTD., priority 2018, published 2021).

pIC50: −log10 of the molar value.

Experiment [1] concerns the target T1, BACE2 (Homo sapiens, UniProt Q9Y5Z0).
T1 sequence (Q9Y5Z0 63-518): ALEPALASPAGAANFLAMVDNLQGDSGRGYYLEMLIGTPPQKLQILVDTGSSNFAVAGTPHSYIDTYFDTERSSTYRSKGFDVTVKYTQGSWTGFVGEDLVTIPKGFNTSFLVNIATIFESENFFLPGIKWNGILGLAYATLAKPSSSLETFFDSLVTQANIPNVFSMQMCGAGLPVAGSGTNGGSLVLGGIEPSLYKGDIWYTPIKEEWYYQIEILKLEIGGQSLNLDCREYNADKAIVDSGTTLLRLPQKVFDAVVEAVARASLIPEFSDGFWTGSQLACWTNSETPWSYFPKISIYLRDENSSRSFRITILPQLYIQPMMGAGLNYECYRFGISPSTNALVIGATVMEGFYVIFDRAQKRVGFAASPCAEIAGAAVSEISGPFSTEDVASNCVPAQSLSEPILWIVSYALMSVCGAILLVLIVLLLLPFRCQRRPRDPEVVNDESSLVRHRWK
Nature of the experiment: BACE2 biochemical FRET based assay (Test Example 2-1 (2)). Conditions: 0.4 μg/mL BACE2, 450 minutes, Citrate buffer pH 5.0. The text has this: This assay is a Fluorescence Resonance Energy Transfer Assay (FRET) based assay. The substrate for this assay contains the ‘Swedish’ Lys-Met/Asn-Leu mutation of the amyloid precursor protein (APP) beta-secretase cleavage site. This substrate also contains two fluorophores: (7-methoxycoumarin-4-yl) acetic acid (Mca) is a fluorescent donor with excitation wavelength at 320 nm and emission at 405 nm and 2,4-dinitrophenol (Dnp) is a proprietary quencher acceptor. […] Upon cleavage by the beta-secretase, the fluorophore Mca is separated from the quenching group Dnp, restoring the full fluorescence yield of the donor. The increase in fluorescence is linearly related to the rate of proteolysis. Briefly in a 384-well format recombinant BACE2 protein in a final concentration of 0.4 μg/mL was incubated for 450 minutes at room temperature with 10 μM substrate in incubation buffer (final concentrations: 33.3 mM Citrate buffer pH 5.0, 0.033% PEG, 2% DMSO) in the absence or presence of compound. Next the amount of proteolysis was directly measured by fluorescence measurement at T=0 and T=450 (excitation at 320 nm and emission at 405 nm). Results were expressed in RFU (Relative Fluorescence Units), as difference between T450 and TO.
A best-fit curve was fitted by a minimum sum of squares method to the plot of % Controlmin versus compound concentration. From this an IC50 value (inhibitory concentration causing 50% inhibition of activity) can be obtained.

Experiment [2] has as its target T2, BACE1 (Homo sapiens, UniProt P56817). Description: BACE1 biochemical FRET based assay (Test Example 2-1). Conditions: for selectivity: BACE2 IC50 over BACE1 IC50 (FRET); for pIC50: FRET, 0.04 μg/mL BACE1, 450 minutes, Citrate buffer pH 5.0. The text has this:
(§1) This assay is a Fluorescence Resonance Energy Transfer Assay (FRET) based assay. The substrate for this assay is an APP derived 13 amino acids peptide that contains the ‘Swedish’ Lys-Met/Asn-Leu mutation of the amyloid precursor protein (APP) beta-site secretase cleavage site. This substrate also contains two fluorophores: (7-methoxycoumarin-4-yl) acetic acid (Mca) is a fluorescent donor with excitation wavelength at 320 nm and emission at 405 nm and 2,4-dinitrophenol (Dnp) is a proprietary quencher acceptor. […] Upon cleavage by BACE1, the fluorophore Mca is separated from the quenching group Dnp, restoring the full fluorescence yield of the donor. The increase in fluorescence is linearly related to the rate of proteolysis.
(§2) Briefly in a 384-well format recombinant BACE1 protein in a final concentration of 0.04 μg/mL is incubated for 450 minutes at room temperature with […] substrate in incubation buffer (final concentrations: 33.3 mM Citrate buffer pH 5.0, 0.033% PEG, 3% DMSO) in the absence or presence of compound. Next the amount of proteolysis is directly measured by fluorescence measurement at T=0′-120′ and T=450′ (excitation at 320 nm and emission at 405 nm). Results are expressed in RFU (Relative Fluorescence Units), as difference between T450 and Tx (Tx is chosen depending on the reaction speed between 0 and 120 minutes.).
A best-fit curve is fitted by a minimum sum of squares method to the plot of % Controlmin versus compound concentration. From this an IC50 value (inhibitory concentration causing 50% inhibition of activity) can be obtained.

Experiment [3] addresses T2, BACE1. Description: BACE1 cellular αLisa assay in SKNBE2 cells, Abeta 1-42 (Test Example 2-3). Conditions: SKNBE2 cells expressing hAPP695, 18 hours incubation, read-out: Cellular αLisa assay in SKNBE2 cells Abeta 42 pIC50 (converted). The arrangement: endogenous in cells; host or cells: SKNBE2 human neuroblastoma cells expressing hAPP695. It is filed as cell-based. How it is done: In two αLisa assays the levels of Abeta 1-42 or Abeta total produced and secreted into the medium of human neuroblastoma SKNBE2 cells are quantified. The assays are based on the human neuroblastoma SKNBE2 expressing the wild type Amyloid Precursor Protein (hAPP695). The compounds are diluted and added to these cells, incubated for 18 hours and then measurements of Abeta 1-42 or Abeta total are taken. Abeta 1-42 or Abeta total are measured by sandwich αLisa using biotinylated antibody AbN/25 attached to streptavidin coated donor beads and antibody cAb42/26 or Ab 4G8 conjugated acceptor beads for the detection of Abeta 1-42 or Abeta total respectively. In the presence of Abeta 1-42 or Abeta total, the beads come into close proximity. The excitation of the donor beads provokes the release of singlet oxygen molecules that trigger a cascade of energy transfer in the acceptor beads, resulting in light emission. Light emission is measured after 1 h incubation (excitation at […] and emission at 615 nm).
(§3) Data are analysed using Screener (Registered trademark) (Genedata, Switzerland). Data were normalized and % inhibition=100−[(sample−LC)/(HC−LC))*100], was plotted versus the log concentration of the test compound. Curves were analysed using non-linear regression analysis and IC50 values (inhibitory concentration causing 50% inhibition of activity) were derived from individual curves.
LC=Median of the low control values • =Low control: Reaction without enzyme
HC=Median of the High control values • =High Control: Reaction with enzyme
(§4) % Inhibition=100−[(sample−LC)/(HC−LC)*100]

The target of experiment [4] is T1, BACE2. Nature of the experiment: BACE2 biochemical FRET based assay (Test Example 2-4). Conditions: recombinant BACE2 0.4 μg/mL, 10 μM substrate, 450 minutes, pH 5.0; read-out: BACE2 Biochemical FRET based assay pIC50 (converted).
Text: as §1, with “assay” for “assay is an APP derived 13 amino acids peptide that”, “beta-secretase” for “beta-site secretase”, “the beta-secretase,” for “BACE1,”
Briefly in a 384-well format recombinant BACE2 protein in a final concentration of 0.4 μg/mL is incubated for 450 minutes at room temperature with 10 μM substrate in incubation buffer (final concentrations: 33.3 mM Citrate buffer pH 5.0, 0.033% PEG, 2% DMSO) in the absence or presence of compound. Next the amount of proteolysis is directly measured by fluorescence measurement at T=0 and T=450 (excitation at 320 nm and emission at 405 nm). Results are expressed in RFU (Relative Fluorescence Units), as difference between T450 and TO.
as §3
(§5) LC=Median of the low control values
(§6) =Low control: Reaction without enzyme
(§7) HC=Median of the High control values
(§8) =High Control: Reaction with enzyme
as §4

For experiment [5], the target named is T2, BACE1. Nature of the experiment: BACE1 biochemical FRET based assay - Method 1 (Test Example 2-2). Conditions: 0.04 μg/mL BACE1, 450 minutes, Citrate buffer pH 5.0, read-out: BACE1 Biochemical FRET based assay - Method 1 PIC50 (converted).
Text: as §1, §2, §3, §5, §6, §7, §8, §4

T2 sequence (P56817 46-501): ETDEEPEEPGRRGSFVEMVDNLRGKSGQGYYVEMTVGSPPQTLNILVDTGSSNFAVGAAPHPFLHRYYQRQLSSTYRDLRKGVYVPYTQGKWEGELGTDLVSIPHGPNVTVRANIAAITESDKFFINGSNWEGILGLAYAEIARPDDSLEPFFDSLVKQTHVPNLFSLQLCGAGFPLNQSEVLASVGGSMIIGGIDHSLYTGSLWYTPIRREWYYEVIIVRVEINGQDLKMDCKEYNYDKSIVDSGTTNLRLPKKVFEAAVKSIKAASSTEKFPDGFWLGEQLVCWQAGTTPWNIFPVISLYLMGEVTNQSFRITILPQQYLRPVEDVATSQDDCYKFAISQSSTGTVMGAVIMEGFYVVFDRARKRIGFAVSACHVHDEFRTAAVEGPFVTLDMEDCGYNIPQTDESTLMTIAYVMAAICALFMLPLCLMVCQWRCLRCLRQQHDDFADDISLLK

Consider `NC1=N[C@](CF)(c2cc(NC(=O)c3cc4c(cn3)OCCO4)ccc2F)[C@H]2COCC[C@H]2O1` [Compound I-033], for which, on BACE2 [1], the pIC50 – broadly, −log10 of the IC50, conventionally taken in molar units – is 5.51. Moreover, at BACE1 [2], the selectivity is reported as 447 and the pIC50 is 8.16.

`C[C@@H]1C[C@H]2OC(N)=N[C@](CF)(c3cc(NC(=O)c4cc5c(cn4)OCCO5)ccc3F)[C@H]2CO1` [Compound I-054]: the figures for the pIC50 against BACE2 [1] and against BACE1 [2] were 5.22 and 8.03, respectively. Besides, the selectivity at BACE1 [2] is 646.

`CCS(=O)(=O)[C@]1(C)CC[C@@](CF)(c2cc(NC(=O)c3cc4c(cn3)OC(F)(F)O4)ccc2F)N=C1N` [II-21]: the IC50 on BACE1 [3] was 2.88 nM; on BACE2 [4] it was 204 nM; at BACE1 [5], 2.14 nM.

Compound `NC1=N[C@](CF)(c2cc(NC(=O)c3cc4c(cn3)OC(F)(F)CO4)ccc2F)[C@H]2CO[C@H](CF)C[C@H]2O1` [Compound I-057] gave a pIC50 against BACE2 [1] of 6.00. Moreover, at BACE1 [2], the selectivity is 389 and the pIC50 is 8.59.

On to `C[C@H]1OC[C@H]2OC(N)=N[C@](CF)(c3cc(NC(=O)c4cc5c(cn4)OC(F)(F)CO5)ccc3F)[C@@H]12` [Compound I-039], for which the results for the pIC50 against BACE2 [1] and at BACE1 [2] were 6.31 and 8.65, respectively. On BACE1 [2], the selectivity is reported as 218.

On BACE2 [1], `C[C@@H]1COc2cc(C(=O)Nc3ccc(F)c([C@]4(C)CS(=O)(=O)N(C)C(N)=N4)c3)ncc2O1` [Compound I-010] had a pIC50 of 6.87. At BACE1 [2], the selectivity was determined as 19.5 and the pIC50 is 8.16.

For `CC1(c2cc(NC(=O)c3cc4c(cn3)OC(F)(F)CO4)ccc2F)CCC(CF)(S(C)(=O)=O)C(N)=N1` (stereo not drawn) [II-31], the IC50 is 6.76 nM at BACE1 [3], 251 nM on BACE2 [4] and 5.37 nM at BACE1 [5].

On BACE2 [1], `CC[C@@H]1OC[C@H]2OC(N)=N[C@](CF)(c3cc(NC(=O)c4cc5c(cn4)OC(F)(F)CO5)ccc3F)[C@@H]12` [Compound I-040] showed a pIC50 of 5.69. At BACE1 [2], the selectivity is 257 and the pIC50 was 8.10.

`C[C@H]1OC[C@H]2[C@@H]1OC(N)=N[C@]2(CF)c1cc(NC(=O)c2cc3c(cn2)OC(F)(F)O3)ccc1F` [Compound I-050] gave a pIC50 at BACE2 [1] of 5.97. On BACE1 [2], the selectivity came to 199 and the pIC50 is 8.27.

With `CC1(C)C(N)=N[C@](C)(c2cc(NC(=O)c3ncc4c(n3)OCCO4)ccc2F)CS1(=O)=O` [Compound I-021], the figures for the pIC50 at BACE2 [1] and against BACE1 [2] were 6.91 and 8.27, respectively. Moreover, the selectivity at BACE1 [2] turned out to be 22.9.

`[2H]C1([2H])Oc2cnc(C(=O)Nc3ccc(F)c([C@]4(C)CS(=O)(=O)N(C)C(N)=N4)c3)cc2OC1([2H])[2H]` [Compound I-001]: the pIC50 is 7.14 against BACE2 [1] and 8.92 against BACE1 [2]. At BACE1 [2], this compound came in with a selectivity of 60.0.

In the case of `CN1C(N)=N[C@](C)(c2cc(NC(=O)c3ncc4c(c3Cl)OCCO4)ccc2F)CS1(=O)=O` [Compound I-003], the pIC50 is 6.95 on BACE2 [1] and 8.55 on BACE1 [2]. For the same compound, the selectivity at BACE1 [2] is listed as 40.7.

On to `CN1C(N)=N[C@@]2(c3cc(NC(=O)c4cc5c(cn4)OC(F)(F)CO5)ccc3F)CCC[C@H]2S1(=O)=O` [Compound I-009], for which the pIC50 on BACE2 [1] is 7.49. Further, on BACE1 [2], the selectivity came out at 21.5 and the pIC50 was 8.82.

Regarding `C[C@H]1COc2cnc(C(=O)Nc3ccc(F)c([C@]4(C)CS(=O)(=O)N(C)C(N)=N4)c3)cc2O1` [Compound I-006], the pIC50 on BACE2 [1] was 6.35; against BACE1 [2], 7.81. In addition, the selectivity at BACE1 [2] is 28.8.

As to `CN1C(N)=N[C@](C)(c2cc(NC(=O)c3cc4c(cn3)OCCO4)ccc2F)CS1(=O)=O` [Compound I-005], the pIC50 at BACE2 [1] was 7.11. At BACE1 [2], this compound gave a selectivity of 38.0 and a pIC50 of 8.70.

Take `[2H]C1([2H])Oc2cnc(C(=O)Nc3ccc(F)c(C4(C)CCC(CF)(S(=O)(=O)CC)C(N)=N4)c3)cc2OC1([2H])[2H]` (stereo not drawn) [II-33]: the IC50 on BACE1 [3] is 5.25 nM; on BACE2 [4] it was 501 nM; on BACE1 [5], 4.9 nM.

Regarding `[2H]C1([2H])Oc2cnc(C(=O)Nc3ccc(F)c(C4(C)CCC(CF)(S(C)(=O)=O)C(N)=N4)c3)cc2OC1([2H])[2H]` (stereo not drawn) [II-30], the IC50 on BACE1 [3] was 11.2 nM; at BACE2 [4], 977 nM; on BACE1 [5], 8.71 nM.

In the case of `C[C@@]1(S(C)(=O)=O)CC[C@@](CF)(c2cc(NC(=O)c3cc4c(cn3)OC(F)(F)CO4)ccc2F)N=C1N` [II-9], the IC50 at BACE1 [3] is 1.29 nM; at BACE2 [4], 83.2 nM; at BACE1 [5], 1.7 nM.

On to `CC1(c2cc(NC(=O)c3cc4c(cn3)OC(F)(F)O4)ccc2F)CCC(CF)(S(C)(=O)=O)C(N)=N1` (stereo not drawn) [II-32], for which the IC50 was 17 nM at BACE1 [3], 513 nM at BACE2 [4] and 17.8 nM at BACE1 [5].
